Measurements: ChEMBL document CHEMBL1141160, “Structure-based optimization of phenylbutyrate-derived histone deacetylase inhibitors” (J Med Chem, 2005)

What was measured:
DU-145 = experiment: cells; conditions: Homo sapiens, DU-145, 96 h
Description: Inhibitory concentration against DU-145 prostate cancer cell proliferation over 96 hr

Histone deacetylase = conditions: prostate
Description: In vitro inhibitory concentration against histone deacetylase of DU-145 prostate cell nuclear extract as deacetylation of biotinylated [3H]-acetyl histone H4 peptide

SMILES | IC50 (DU-145) [nM] | IC50 (Histone deacetylase) [nM]
CC(C)[C@H](C(=O)Nc1ccc(C(=O)NO)cc1)c1ccccc1 [AR-42] | 110 | –
CC(C)(C(=O)Nc1ccc(C(=O)NO)cc1)c1ccccc1 | – | 98
O=C(CCc1ccc(NC(=O)CCCc2ccccc2)cc1)NO | – | 1200
CCC(C(=O)Nc1ccc(C(=O)NO)cc1)c1ccccc1 (racemic) | – | 54
O=C(CCCc1ccccc1)NCc1ccc(C(=O)NO)cc1 | – | 530
O=C(Cc1ccccc1)Nc1ccc(C(=O)NO)cc1 | – | 157
CC(C)(CCc1ccccc1)C(=O)Nc1ccc(C(=O)NO)cc1 | – | 25
O=C(CCCCc1ccccc1)Nc1ccc(C(=O)NO)cc1 | – | 250
CC(C)[C@@H](C(=O)Nc1ccc(C(=O)NO)cc1)c1ccccc1 | 820 | –
CN(C(=O)CCCc1ccccc1)c1ccc(C(=O)NO)cc1 | – | 520
CC[C@@H](C(=O)Nc1ccc(C(=O)NO)cc1)c1ccccc1 | – | 68
CC[C@H](C(=O)Nc1ccc(C(=O)NO)cc1)c1ccccc1 | – | 34
O=C(NO)c1ccc(NC(=O)c2ccccc2)cc1 | – | 210
